Measured values as given in paper PMC7335187, “Super-assembly of ER-phagy receptor Atg40 induces local ER remodeling at contacts with forming autophagosomal membranes” (Nature Communications, 2020).
Where a SMILES comes first, the peptide text is derived from it.

Assays:
Format in all cases: binding
[1] = biological target: Atg8 (Saccharomyces cerevisiae, UniProt P38182, K26P); assay: biochemical
Protocol: ITC experiments were performed using Microcal iTC200 calorimeter (Malvern Panalytical), with stirring at 1000 rpm at 25 °C. Atg40, FAM134B, SEC62, and RTN3 peptides were prepared as injection samples from the syringe. […] In total, 200 μl Atg8, LC3A, LC3B, LC3C, GABARAP, GABARAPL1, and GABARAPL2 with 10 times lower concentration than the syringe samples were filled in the cell. […] The titration involved 18 injections of 2 μl of the syringe sample at intervals of 120 s into a cell after one injection of 0.4 μl of syringe sample. Data sets obtained from the titration of the same syringe sample to the cell filled with buffer were used as reference data for subtraction of heat of dilution. MicroCal Origin 7.0 software was used for data analysis. Thermal measurement of the first injection of the syringe samples was removed from the analysis.

[2] = biological target: GABARAPL1 WT (Homo sapiens, UniProt Q9H0R8); assay: ITC of peptides with GABARAPL1; conditions: 25 °C, ± fitting error
GABARAPL1 WT, sequence (Q9H0R8 whole entry, the tested form may be a part): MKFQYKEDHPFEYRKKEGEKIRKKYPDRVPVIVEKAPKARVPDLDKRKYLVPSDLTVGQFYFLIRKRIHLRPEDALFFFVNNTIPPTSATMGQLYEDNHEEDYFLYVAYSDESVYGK
Protocol: (§1) Some of peptides (Supplementary Table 4) and all proteins except Atg40-6His were expressed in E. coli BL21 (DE3). Bacteria were cultured at 37 °C until OD600 became 0.8–1.0 and further cultured at 16 °C with 100 μM IPTG overnight. After centrifugation, the pellets were resuspended with 20 ml PBS with 0.5 mM EDTA and lysed by sonication for 10 min. After centrifugation, the supernatants were incubated with GST-accept resin (Nacalai tesque). After three times wash by PBS, the proteins were eluted with glutathione buffer (10 mM glutathione and 50 mM Tris pH 8.0). The buffer of the eluates was exchanged with PBS by a Bio-Scale Mini BioGel P-6 desalting column (Bio-Rad). After incubation with GST-fused HRV 3 C protease at 4 °C overnight, the samples were subjected to a GST-accept resin column to remove excised GST and the protease. RTN3^245–264-GABARAP was purified by cation-exchange chromatography using CM Sepharose FF column (GE Healthcare) with 500 mM MES pH 6.0 as buffer B and 50 mM MES pH 6.0 and 1 M NaCl as buffer C. The samples were further subjected to size-exclusion chromatography with 20 mM HEPES pH 6.8, 150 mM sodium chloride except for mCherry-Atg8-CC^tetramer (20 mM HEPES pH 6.8, 500 mM sodium chloride) using a Superdex 75 10/300 or Superdex 200 26/60 column. […]

[3] = biological target: LC3C WT (Homo sapiens, UniProt Q9BXW4); assay: ITC of peptides with LC3C; conditions: 25 °C, ± fitting error
LC3C WT, sequence (Q9BXW4 whole entry, the tested form may be a part): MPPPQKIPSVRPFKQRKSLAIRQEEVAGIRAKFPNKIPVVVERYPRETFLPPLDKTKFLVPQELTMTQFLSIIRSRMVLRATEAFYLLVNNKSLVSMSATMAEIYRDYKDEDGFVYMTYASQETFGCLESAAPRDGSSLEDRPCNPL
Protocol: (§2) Some of peptides (Supplementary Table 4) and all proteins except Atg40-6His were expressed in E. coli BL21 (DE3). Bacteria were cultured at 37 °C until OD600 became 0.8–1.0 and further cultured at 16 °C with 100 μM IPTG overnight. After centrifugation, the pellets were resuspended with 20 ml PBS with 0.5 mM EDTA and lysed by sonication for 10 min. After centrifugation, the supernatants were incubated with GST-accept resin (Nacalai tesque). After three times wash by PBS, the proteins were eluted with glutathione buffer (10 mM glutathione and 50 mM Tris pH 8.0). The buffer of the eluates was exchanged with PBS by a Bio-Scale Mini BioGel P-6 desalting column (Bio-Rad). After incubation with GST-fused HRV 3 C protease at 4 °C overnight, the samples were subjected to a GST-accept resin column to remove excised GST and the protease. RTN3^245–264-GABARAP was purified by cation-exchange chromatography using CM Sepharose FF column (GE Healthcare) with 500 mM MES pH 6.0 as buffer B and 50 mM MES pH 6.0 and 1 M NaCl as buffer C. The samples were further subjected to size-exclusion chromatography with 20 mM HEPES pH 6.8, 150 mM sodium chloride except for mCherry-Atg8-CC^tetramer (20 mM HEPES pH 6.8, 500 mM sodium chloride) using a Superdex 75 10/300 or Superdex 200 26/60 column. As described in Supplementary Table 4, the Atg40^237–252 M245A and Atg40^237–252 D243A D247A peptides were synthesized by Cosmo Bio, and the FAM134B^453–460 and SEC62^361–368 peptides were synthesized by BEX Co., Ltd. The Atg40^234–252 peptide and its variants were prepared using Liberty Blue peptide synthesizer (CEM Corporation). After dissolving these synthesized peptides in 300 μl water with ~10 μl ammonium hydroxide, they were subjected to size-exclusion chromatography with 20 mM HEPES pH 6.8 containing 150 mM sodium chloride using a Superdex 75 10/300 column.
Peptides used in ITC are listed in Supplementary Table 4. ITC experiments were performed using Microcal iTC200 calorimeter (Malvern Panalytical), with stirring at 1000 rpm at 25 °C. Atg40, FAM134B, SEC62, and RTN3 peptides were prepared as injection samples from the syringe. Concentrations of FAM134B, SEC62, and RTN3 peptides were 0.5 mM, whereas those of Atg40^234–252 and Atg40^237–252 peptides were 2.0 and 1.8 mM, respectively. In total, 200 μl Atg8, LC3A, LC3B, LC3C, GABARAP, GABARAPL1, and GABARAPL2 with 10 times lower concentration than the syringe samples were filled in the cell. As an exception, 1.8 mM Atg8 was filled in the cell when 1.8 mM Atg40^237–252 D243A D247A was in a syringe. The titration involved 18 injections of 2 μl of the syringe sample at intervals of 120 s into a cell after one injection of 0.4 μl of syringe sample. […]

[4] = biological target: LC3B WT (Rattus norvegicus, UniProt Q62625); assay: ITC of peptides with LC3B; conditions: 25 °C, ± fitting error
Description: All plasmids for expression of recombinant proteins and peptides in bacteria were based on a pGEX6P-1 vector (GE Healthcare). Construction of pGEX6P-ScAtg8 (1-116) K26P and pGEX6P-rat LC3B (1-120) was previously described[35],[47]. All mutations were generated by PCR-based mutagenesis. The genes were amplified by PCR and inserted downstream of the HRV 3C protease recognition site by NEBuilder HiFi DNA Assembly Master Mix (New England Biolabs) except for that encoding human GABARAP (1-116), which was inserted using restriction enzymes for the NdeI and BamHI sites. Plasmids for expression of fusion proteins for crystallization were constructed by inserting the genes encoding Atg40^237–252, human FAM134B^450–468, human SEC62^361–376 with the T367D mutation, and human RTN3^245–264 isoform e into upstream of the sequence encoding Atg8 K26P of pGEX6P-Atg8 (the K26P mutation was introduced for stabilizing Atg8) or upstream of the sequence encoding GABARAP of pGEX6P-GABARAP (with the F3S V4T mutations for enhancing crystallization). For phase-separation experiments, the mCherry and BNDL1[25],[26] sequences were inserted into upstream and downstream of the ATG8 gene in pGEX6P-Atg8 K26P, respectively. pGEX-SNAP-40C was constructed by the removal of the HRV 3C protease recognition site and the insertion of the SNAP sequence from pSNAP-tag(T7) vector (New England Biolabs) with a linker (Gly–Gly–Gly–Ser–Gly–Gly–Gly) and Atg40^194–256 following a linker (Ser–Ala–Ser–Ser) to upstream and downstream of GST in pGEX6P-1 vector, respectively. In the construction of plasmids for peptide production, a Tyr residue was attached to their C termini for enabling the quantification by absorbance at 280 nm (Supplementary Table 4).
Some of peptides (Supplementary Table 4) and all proteins except Atg40-6His were expressed in E. coli BL21 (DE3). Bacteria were cultured at 37 °C until OD600 became 0.8–1.0 and further cultured at 16 °C with 100 μM IPTG overnight. After centrifugation, the pellets were resuspended with 20 ml PBS with 0.5 mM EDTA and lysed by sonication for 10 min. […]

[5] = biological target: GABARAPL2 WT (Homo sapiens, UniProt P60520); assay: ITC of peptides with GABARAPL2; conditions: 25 °C, ± fitting error
GABARAPL2 WT, sequence (P60520 whole entry): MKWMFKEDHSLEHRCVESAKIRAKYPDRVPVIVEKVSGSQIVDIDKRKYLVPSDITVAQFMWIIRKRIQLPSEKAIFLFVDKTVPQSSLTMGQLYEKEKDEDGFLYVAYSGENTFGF
Protocol: as §1

[6] = biological target: LC3A WT (Homo sapiens, UniProt Q9H492); assay: ITC of peptides with LC3A; conditions: 25 °C, ± fitting error
Protocol: as §2
Peptides used in ITC are listed in Supplementary Table 4. ITC experiments were performed using Microcal iTC200 calorimeter (Malvern Panalytical), with stirring at 1000 rpm at 25 °C. […]

Atg8, sequence (P38182 1-116 K26P): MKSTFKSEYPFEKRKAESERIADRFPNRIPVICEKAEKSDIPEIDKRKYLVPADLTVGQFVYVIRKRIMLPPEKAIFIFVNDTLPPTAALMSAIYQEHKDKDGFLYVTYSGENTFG

`CC[C@H](C)[C@H](NC(=O)[C@H](CC(=O)O)NC(=O)[C@H](CCC(=O)O)NC(=O)[C@H](CCSC)NC(=O)[C@H](Cc1ccccc1)NC(=O)[C@H](CC(=O)O)NC(=O)[C@H](Cc1ccc(O)cc1)NC(=O)[C@H](CC(=O)O)NC(=O)[C@H](CC(N)=O)NC(=O)[C@@H]1CCCN1C(=O)[C@H](Cc1ccccc1)NC(=O)[C@H](CCC(=O)O)NC(=O)[C@@H]1CCCN1C(=O)CN)C(=O)N[C@@H](CC(C)C)C(=O)N[C@@H](CC(=O)O)C(=O)N[C@@H](CCC(=O)O)C(=O)N[C@H](C(=O)O)[C@@H](C)O` [Atg40^237-252 WT] (H-GPEFPNDYDFMEDILDET-OH) was tested, and the Kd [1] was 570 ± 510 nM and the “N (site), stoichiometry of binding” value ([1]; ITC, 25 °C, peptide in syringe 2.0 or 1.8 mM, Atg8 in cell 10 times lower, single-site model, ± fitting error) was 0.90 ± 0.03.

`CC[C@H](C)[C@H](NC(=O)[C@H](CCC(N)=O)NC(=O)[C@H](CC(=O)O)NC(=O)[C@H](CC(C)C)NC(=O)[C@H](CCC(=O)O)NC(=O)[C@H](CO)NC(=O)[C@H](CCC(N)=O)NC(=O)[C@H](CC(=O)O)NC(=O)[C@H](CC(C)C)NC(=O)[C@H](CC(C)C)NC(=O)[C@H](CCC(=O)O)NC(=O)[C@H](Cc1ccccc1)NC(=O)[C@H](CC(=O)O)NC(=O)[C@H](CC(=O)O)NC(=O)CNC(=O)[C@H](CCC(=O)O)NC(=O)[C@H](CCC(=O)O)NC(=O)[C@@H](NC(=O)[C@H](CC(=O)O)NC(=O)[C@@H](NC(=O)[C@H](CC(=O)O)NC(=O)[C@H](CCC(=O)O)NC(=O)[C@H](CCC(=O)O)NC(=O)[C@@H]1CCCN1C(=O)CN)[C@@H](C)O)[C@@H](C)O)C(=O)N[C@@H](CCC(=O)O)C(=O)N[C@@H](CO)C(=O)N[C@@H](CCC(=O)O)C(=O)N[C@@H](CC(C)C)C(=O)N[C@@H](Cc1ccc(O)cc1)C(=O)O` [FAM134B^444-470 WT] gave a Kd ([2]; 0.5 mM peptide in syringe, GABARAPL1 WT in cell 10 times lower, single-site model) of 120 ± 40 nM, a Kd ([3]; 0.5 mM peptide in syringe, LC3C WT in cell 10 times lower, single-site model, read-out: Kd) of 1110 ± 350 nM and a Kd ([4]; 0.5 mM peptide in syringe, LC3B WT in cell 10 times lower, single-site model) of 620 ± 160 nM. It also gave a Kd ([5]; 0.5 mM peptide in syringe, GABARAPL2 WT in cell 10 times lower, single-site model) of 300 ± 100 nM and a Kd ([6]; 0.5 mM peptide in syringe, LC3A WT in cell 10 times lower, single-site model) of 210 ± 30 nM.

With `CC[C@H](C)[C@H](NC(=O)[C@H](CCSC)NC(=O)[C@H](CCC(=O)O)NC(=O)[C@H](Cc1ccccc1)NC(=O)[C@H](CC(=O)O)NC(=O)[C@H](CC(N)=O)NC(=O)CNC(=O)[C@H](CC(N)=O)NC(=O)CNC(=O)[C@H](CO)NC(=O)[C@H](CO)NC(=O)[C@H](Cc1c[nH]cn1)NC(=O)[C@@H]1CCCN1C(=O)CN)C(=O)N[C@H](C(=O)N[C@@H](CCCCN)C(=O)N[C@@H](CCC(=O)O)C(=O)N[C@@H](CCC(=O)O)C(=O)N[C@@H](CC(C)C)C(=O)N[C@@H](CCC(=O)O)C(=O)N[C@@H](CCC(N)=O)C(=O)N[C@@H](CCC(N)=O)C(=O)N[C@H](C(=O)N[C@@H](CC(=O)O)C(=O)N[C@@H](Cc1ccc(O)cc1)C(=O)O)[C@@H](C)O)[C@@H](C)O` [SEC62^355-376 WT] (H-GPHSSGNGNDFEMITKEELEQQTDY-OH) the “N (site), stoichiometry of binding” value ([2]; GABARAPL1 WT in cell) was 0.83 ± 0.01, the “N (site), stoichiometry of binding” value ([3]; LC3C WT in cell, N fixed to 1.0 when fitting not convergent) was 0.46 ± 0.02 and the “N (site), stoichiometry of binding” value ([4]; LC3B WT in cell, N fixed to 1.0 when fitting not convergent) was 0.74 ± 0.01. The “N (site), stoichiometry of binding” value ([5]; GABARAPL2 WT in cell, N fixed to 1.0 when fitting not convergent) was 0.78 ± 0.01 and the “N (site), stoichiometry of binding” value ([6]; LC3A WT in cell) was 0.78 ± 0.01.
